In PMC10433800, “Dissecting the Arginine and Lysine Biosynthetic Pathways and Their Relationship in Haloarchaeon Natrinema gari J7-2 via Endogenous CRISPR-Cas System-Based Genome Editing” (Microbiology Spectrum, 2023):

Target: T1, NgArgX (Natrinema gari, UniProt L9YZH8)
T1 construct: gene C486_12678; ArgX with His tag (C-terminal in complementation plasmids), expressed in and partially purified from the J7-2 delta-argWX strain; carrier ArgW with N-terminal His tag purified from E. coli BL21(DE3); with Alpha-aminoadipate/glutamate carrier protein LysW/ArgW
T1 sequence (L9YZH8 1-291): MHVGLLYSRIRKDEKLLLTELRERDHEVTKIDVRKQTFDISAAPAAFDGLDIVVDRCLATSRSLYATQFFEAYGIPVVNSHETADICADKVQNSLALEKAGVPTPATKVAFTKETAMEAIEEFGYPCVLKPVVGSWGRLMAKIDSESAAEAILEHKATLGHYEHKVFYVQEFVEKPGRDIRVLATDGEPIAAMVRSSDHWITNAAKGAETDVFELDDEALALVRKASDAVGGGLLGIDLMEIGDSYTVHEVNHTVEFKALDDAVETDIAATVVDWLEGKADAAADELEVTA
Experiment: LC-MS/MS of trypsin-digested NgArgW-glutamate product
Type: biochemical
Details: 10 mM glutamate, 20 mM ATP, 1 mM MgCl2, 0.1 mM ZnSO4, 3 M KCl, 100 mM HEPES pH 7.5, 45 °C, 12 h; glutamate ligated to Glu54 of NgArgW; enzyme partially purified

N[C@@H](CCC(=O)O)C(=O)O [glutamate]
LC-MS/MS of trypsin-digested NgArgW-glutamate product: both NgArgX and NgArgXa specifically act on glutamate rather than AAA
